This data set is classed as in vitro ADME. The settings on record: PAMPA. From the text:
Topics Med. Chem. 2001, 1, 277-351.
(The PAMPA barrier holds no transporters, so it reflects passive diffusion.)

Structures are written as SMILES. Like-named read-outs stand apart in the source and are kept apart here.

These results are taken from patent US20080213363A1, “Methods and compositions for delivering 5-HT3 antagonists across the oral mucosa” (priority 2003, published 2008).

The term Papp denotes a coefficient for how fast a substance crosses the barrier.

With `Cc1nccn1CC1CCc2c(c3ccccc3n2C)C1=O.Cl` (stereo not drawn) [Ondansetron HCl, ondansetron HCl], the Papp was 0.32 ×10⁻⁶ cm/s (pH 5.4), 1.3 ×10⁻⁶ cm/s (pH 7.4) and 3.25 ×10⁻⁶ cm/s (pH 8.5).
